# The source made the active and inactive calls.
# How the values were obtained:
# Orexin receptor type 2 [1] = biological target: T1, Orexin receptor type 2 (Homo sapiens, UniProt O43614); test: Counterscreen assay for antagonists of the orexin 1 receptor (OX1R; HCRTR1): Fluorescence-based cell-based dose response assay for antagonists of the orexin 2 receptor (OX2R; HCRTR2), run by assay provider.; format: functional
# [2] = Luminescence Cell-Based Dose Response to Identify Activators of 5'UTR Stem-Loop Driven Prion Protein mRNA Translation in H4-C Neuroglioblastoma Cells. [Related pubchem assays: 1829 (Project Summary), 1814 (Primary HTS)]; format: functional
# CHO-K1 = test: Counterscreen for antagonists of the orexin 1 receptor (OX1R; HCRTR1): Homogeneous time resolved fluorescence (HTRF)-based cell-based dose response assay to identify antagonists of the parental CHO-K1 cell line. [Related pubchem assays (depositor defined):AID434989, AID435008, AID463079, AID485270, AID492963, AID492964, AID492965, AID493232, AID504699, AID504701]; format: functional; conditions: Cricetulus griseus;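 further: potency for inhibition of ATP-stimulated IP1 production as antagonists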
# [3] = Luminescence Cell-Based Dose Response HTS to Identify Activators of Luciferase Translation or Activity in H4 […] Cells. [Related pubchem assays: 1829 (Project Summary), 1814 (Primary HTS)]; format: functional
# [4] = Counterscreen for antagonists of the orexin 1 receptor (OX1R; HCRTR1): Fluorescence-based cell-based high throughput dose response assay to identify antagonists of the parental CHO cell line. [Related pubchem assays (depositor defined):AID434989, AID435008, AID463079, AID485270, AID492963, AID492964, AID492965, AID493232, AID504699, AID504701]; format: functional
# [5] = Luminescence Cell-Based Dose Response to Identify Activators of Luciferase Translation or Activity in H4-C Neuroglioblastoma Cells. [Related pubchem assays: 1829 (Project Summary), 1814 (Primary HTS)]; format: functional
# [6] = biological target: T2, Orexin/Hypocretin receptor type 1 (Homo sapiens, UniProt O43613); test: Fluorescence-based cell-based high throughput dose response assay for antagonists of the orexin 1 receptor (OX1R; HCRTR1). [Related pubchem assays (depositor defined):AID434989, AID435008, AID463079, AID485270, AID492963, AID492964, AID492965, AID493232, AID504717, AID504718]; format: functional
# T2 sequence (O43613 whole entry): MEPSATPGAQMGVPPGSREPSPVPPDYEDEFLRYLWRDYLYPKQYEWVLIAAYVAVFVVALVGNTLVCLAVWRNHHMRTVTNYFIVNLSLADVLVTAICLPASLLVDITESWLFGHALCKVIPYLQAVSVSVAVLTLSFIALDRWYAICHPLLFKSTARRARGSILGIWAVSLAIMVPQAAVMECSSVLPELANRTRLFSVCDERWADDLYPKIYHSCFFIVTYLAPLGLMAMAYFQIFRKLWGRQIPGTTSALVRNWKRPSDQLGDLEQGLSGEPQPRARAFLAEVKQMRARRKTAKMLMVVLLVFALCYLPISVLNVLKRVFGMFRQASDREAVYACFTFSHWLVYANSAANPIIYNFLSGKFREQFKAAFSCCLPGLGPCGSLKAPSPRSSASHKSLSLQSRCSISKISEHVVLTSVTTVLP
# H4 = test: Luminescence Cell-Based Dose Response HTS to Identify Activators of 5'UTR Stem-Loop Driven Prion Protein mRNA Translation in H4 Neuroglioblastoma Cells. [Related pubchem assays: 1829 (Project Summary), 1814 (Primary HTS)]; format: functional; conditions: Homo sapiens
# Orexin receptor type 2 [7] = biological target: T1, Orexin receptor type 2; test: Counterscreen assay for antagonists of the orexin 1 receptor (OX1R; HCRTR1): Homogeneous Time Resolved Fluorescence (HTRF)-based cell-based dose response assay for antagonists of the orexin 2 receptor (OX2R; HCRTR2), run by assay provider.; format: functional
# [8] = Luminescence Cell-Based Dose Confirmation to Identify Activators of 5'UTR Stem-Loop Driven Alpha-Synuclein mRNA Translation in H4 Neuroglioblastoma Cells. [Related pubchem assays: 1829 (Project Summary), 1814 (Primary HTS)]; format: functional
# [9] = biological target: T2, Orexin/Hypocretin receptor type 1; test: Homogeneous Time Resolved Fluorescence (HTRF)-based cell-based high throughput dose response assay for antagonists of the orexin 1 receptor (OX1R; HCRTR1). [Related pubchem assays (depositor defined):AID434989, AID435008, AID463079, AID485270, AID492963, AID492964, AID492965, AID493232, AID504717, AID504718]; format: functional
# HEK293 [10] = test: optical interference in Abeta FP readout, dose response, artefact control for IDE activator project, biochemical, fluorescence polarization (AID 588442); format: functional, cell-based; conditions: Homo sapiens
# Insulin-degrading enzyme [11] = biological target: T3, Insulin-degrading enzyme (Homo sapiens, UniProt P14735); test: activators of recombinant IDE enzyme, dose response, counter-screen for IDE activator project, biochemical, fluorescence polarization (AID 588681)
# T3 sequence (P14735 whole entry): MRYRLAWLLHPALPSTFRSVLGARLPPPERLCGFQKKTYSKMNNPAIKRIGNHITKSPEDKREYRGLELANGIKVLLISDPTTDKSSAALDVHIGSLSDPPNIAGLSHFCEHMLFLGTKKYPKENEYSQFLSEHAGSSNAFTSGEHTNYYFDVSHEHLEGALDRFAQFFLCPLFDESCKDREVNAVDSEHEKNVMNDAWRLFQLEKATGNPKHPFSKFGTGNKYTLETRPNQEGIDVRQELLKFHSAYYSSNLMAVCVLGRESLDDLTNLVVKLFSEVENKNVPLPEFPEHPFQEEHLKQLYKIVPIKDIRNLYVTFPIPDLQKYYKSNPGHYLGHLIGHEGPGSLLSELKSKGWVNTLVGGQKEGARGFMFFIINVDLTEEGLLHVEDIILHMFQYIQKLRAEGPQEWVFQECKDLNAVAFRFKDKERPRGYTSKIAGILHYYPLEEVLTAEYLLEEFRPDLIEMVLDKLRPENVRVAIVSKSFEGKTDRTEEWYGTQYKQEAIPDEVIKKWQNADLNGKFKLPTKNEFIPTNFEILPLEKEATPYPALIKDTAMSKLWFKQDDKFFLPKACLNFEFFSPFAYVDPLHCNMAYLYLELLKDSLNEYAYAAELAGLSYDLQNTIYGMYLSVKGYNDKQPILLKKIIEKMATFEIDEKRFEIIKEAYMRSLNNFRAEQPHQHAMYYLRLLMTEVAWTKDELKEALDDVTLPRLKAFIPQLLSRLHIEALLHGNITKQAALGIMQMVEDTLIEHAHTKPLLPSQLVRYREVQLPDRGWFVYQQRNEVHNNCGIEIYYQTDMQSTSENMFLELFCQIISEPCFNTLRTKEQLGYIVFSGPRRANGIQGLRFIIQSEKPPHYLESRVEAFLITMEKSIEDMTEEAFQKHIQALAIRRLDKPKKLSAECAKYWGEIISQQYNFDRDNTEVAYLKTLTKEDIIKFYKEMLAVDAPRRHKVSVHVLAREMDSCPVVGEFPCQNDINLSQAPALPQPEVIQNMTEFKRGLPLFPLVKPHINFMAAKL
# Insulin-degrading enzyme [12] = biological target: T3, Insulin-degrading enzyme; test: activators of endogenous IDE in HEK cells, dose response, cell-based, fluorescence polarization (AID 588439); format: functional
# HEK293 [13] = test: HEK cell cytotoxicity by LDH release, dose response, cytotoxicity control for IDE activator project, fluorescence, HEK cells (AID 588440); format: functional, cell-based; conditions: Homo sapiens;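 further: cytotoxicity by LDH release measuring loss of membrane integrity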
# [14] = biological target: Cyclin-dependent kinase 9 (Homo sapiens, UniProt P50750); format: functional;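 further: value from the CDK9 entry of a kinome-spanning kinase panel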
# Sequence of Cyclin-dependent kinase 9 (P50750 whole entry): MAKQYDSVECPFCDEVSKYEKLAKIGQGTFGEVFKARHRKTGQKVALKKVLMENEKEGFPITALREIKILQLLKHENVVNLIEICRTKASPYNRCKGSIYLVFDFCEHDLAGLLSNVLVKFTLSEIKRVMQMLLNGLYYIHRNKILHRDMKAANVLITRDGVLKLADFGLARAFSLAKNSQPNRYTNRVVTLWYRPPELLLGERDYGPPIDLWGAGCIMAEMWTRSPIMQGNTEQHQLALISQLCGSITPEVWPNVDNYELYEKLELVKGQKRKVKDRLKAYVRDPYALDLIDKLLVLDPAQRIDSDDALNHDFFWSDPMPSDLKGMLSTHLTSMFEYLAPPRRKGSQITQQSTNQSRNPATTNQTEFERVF
# [15] = biological target: Cell division cycle 7-related protein kinase (Homo sapiens, UniProt O00311); format: functional;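 further: value obtained from a kinome-wide kinase panel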
# [16] = biological target: Cyclin-dependent kinase 7 (Homo sapiens, UniProt P50613); format: functional;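 further: value comes from a kinome-wide kinase profiling panel in which CDK7 is one member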
# [17] = biological target: Glycogen synthase kinase-3 beta (Homo sapiens, UniProt P49841); format: functional;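 further: value comes from a broad kinome profiling panel, with GSK3B as the panel member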
# Sequence of Glycogen synthase kinase-3 beta (P49841 whole entry): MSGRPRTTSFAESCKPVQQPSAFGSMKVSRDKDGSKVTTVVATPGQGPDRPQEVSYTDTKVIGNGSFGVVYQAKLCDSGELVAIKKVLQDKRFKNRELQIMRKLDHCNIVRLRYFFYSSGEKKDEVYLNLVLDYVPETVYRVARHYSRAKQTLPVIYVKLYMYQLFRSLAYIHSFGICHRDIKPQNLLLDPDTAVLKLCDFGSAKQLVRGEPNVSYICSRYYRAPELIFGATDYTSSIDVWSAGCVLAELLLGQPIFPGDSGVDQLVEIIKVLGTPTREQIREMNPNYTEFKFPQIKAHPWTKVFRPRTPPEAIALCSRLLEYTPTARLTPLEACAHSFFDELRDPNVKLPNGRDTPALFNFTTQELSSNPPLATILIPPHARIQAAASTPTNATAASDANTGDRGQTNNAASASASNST
# [18] = biological target: cAMP-dependent protein kinase catalytic subunit alpha (Homo sapiens, UniProt P17612); format: functional
# [19] = biological target: Homeodomain-interacting protein kinase 2 (Homo sapiens, UniProt Q9H2X6); format: functional;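 further: measured within a kinome-wide kinase profiling panel, HIPK2 being one panel member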
# [20] = biological target: Serine/threonine-protein kinase pim-1 (Homo sapiens, UniProt P11309); format: functional
# Sequence of Serine/threonine-protein kinase pim-1 (P11309 whole entry): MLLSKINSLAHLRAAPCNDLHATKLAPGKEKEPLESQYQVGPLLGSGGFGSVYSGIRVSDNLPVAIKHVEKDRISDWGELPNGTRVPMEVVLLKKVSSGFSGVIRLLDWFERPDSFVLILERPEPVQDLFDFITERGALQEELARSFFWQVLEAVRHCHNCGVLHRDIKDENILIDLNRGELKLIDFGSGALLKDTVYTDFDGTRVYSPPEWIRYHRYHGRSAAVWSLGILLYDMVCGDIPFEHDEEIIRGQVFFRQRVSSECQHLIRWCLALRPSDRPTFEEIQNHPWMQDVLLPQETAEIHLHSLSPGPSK
# [21] = biological target: Interleukin-1 receptor-associated kinase 4 (Homo sapiens, UniProt Q9NWZ3); format: functional
# Sequence of Interleukin-1 receptor-associated kinase 4 (Q9NWZ3 whole entry): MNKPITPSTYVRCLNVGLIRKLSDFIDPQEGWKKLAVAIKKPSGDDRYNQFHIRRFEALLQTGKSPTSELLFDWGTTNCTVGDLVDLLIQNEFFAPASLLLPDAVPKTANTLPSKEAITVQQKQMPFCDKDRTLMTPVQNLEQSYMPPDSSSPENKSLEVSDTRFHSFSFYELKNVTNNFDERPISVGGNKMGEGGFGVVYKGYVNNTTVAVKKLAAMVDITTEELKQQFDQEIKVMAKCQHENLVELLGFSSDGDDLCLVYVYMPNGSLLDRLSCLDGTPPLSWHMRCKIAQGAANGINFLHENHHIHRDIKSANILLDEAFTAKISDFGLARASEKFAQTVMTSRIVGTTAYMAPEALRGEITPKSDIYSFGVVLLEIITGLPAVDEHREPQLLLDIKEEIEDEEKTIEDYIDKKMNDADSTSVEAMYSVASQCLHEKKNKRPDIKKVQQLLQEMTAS
# [22] = biological target: Sphingosine 1-phosphate receptor 2 (Homo sapiens, UniProt O95136); test: Late-stage fluorescence-based dose-response cell-based counterscreen assay to identify agonists of the Sphingosine 1-Phosphate Receptor 3 (S1P3): Sphingosine 1-Phosphate Receptor 2 (S1P2) agonist assay.; format: functional
# Sequence of Sphingosine 1-phosphate receptor 2 (O95136 whole entry): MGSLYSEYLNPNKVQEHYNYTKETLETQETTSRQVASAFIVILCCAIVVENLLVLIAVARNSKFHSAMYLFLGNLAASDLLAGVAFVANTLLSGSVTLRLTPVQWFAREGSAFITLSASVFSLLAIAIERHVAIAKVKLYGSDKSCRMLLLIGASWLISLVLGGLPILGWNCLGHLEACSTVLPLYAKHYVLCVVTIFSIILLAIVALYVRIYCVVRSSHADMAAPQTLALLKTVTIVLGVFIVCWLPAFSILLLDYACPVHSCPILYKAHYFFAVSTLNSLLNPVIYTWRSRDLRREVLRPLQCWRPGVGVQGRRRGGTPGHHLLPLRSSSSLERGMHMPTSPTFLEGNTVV
# [23] = biological target: T4, Sphingosine 1-phosphate receptor 4 (Homo sapiens, UniProt O95977); test: Late-stage fluorescence-based dose-response cell-based counterscreen assay to identify agonists of the Sphingosine 1-Phosphate Receptor 3 (S1P3): Sphingosine 1-Phosphate Receptor 4 (S1P4) agonist assay.; format: functional
# T4 sequence (O95977 whole entry): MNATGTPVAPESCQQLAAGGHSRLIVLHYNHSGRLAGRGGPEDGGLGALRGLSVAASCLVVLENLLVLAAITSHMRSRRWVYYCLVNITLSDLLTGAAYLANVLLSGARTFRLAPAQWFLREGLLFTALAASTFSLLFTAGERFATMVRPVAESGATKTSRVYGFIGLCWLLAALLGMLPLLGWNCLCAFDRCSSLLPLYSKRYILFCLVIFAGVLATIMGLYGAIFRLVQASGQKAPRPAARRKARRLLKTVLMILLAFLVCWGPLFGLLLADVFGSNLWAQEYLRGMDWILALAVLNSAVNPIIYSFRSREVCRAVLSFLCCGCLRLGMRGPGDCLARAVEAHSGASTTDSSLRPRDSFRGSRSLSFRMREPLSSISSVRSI
# [24] = biological target: Vascular endothelial growth factor receptor 2 (Homo sapiens, UniProt P35968); format: functional
# [25] = biological target: Cyclin-dependent kinase 19 (Homo sapiens, UniProt Q9BWU1); test: Navigating the Kinome. Panel member name: CDC2L6; format: functional
# Aurora kinase B = Aurora kinase B (Homo sapiens, UniProt Q96GD4); format: functional
# Sequence of Aurora kinase B (Q96GD4 whole entry): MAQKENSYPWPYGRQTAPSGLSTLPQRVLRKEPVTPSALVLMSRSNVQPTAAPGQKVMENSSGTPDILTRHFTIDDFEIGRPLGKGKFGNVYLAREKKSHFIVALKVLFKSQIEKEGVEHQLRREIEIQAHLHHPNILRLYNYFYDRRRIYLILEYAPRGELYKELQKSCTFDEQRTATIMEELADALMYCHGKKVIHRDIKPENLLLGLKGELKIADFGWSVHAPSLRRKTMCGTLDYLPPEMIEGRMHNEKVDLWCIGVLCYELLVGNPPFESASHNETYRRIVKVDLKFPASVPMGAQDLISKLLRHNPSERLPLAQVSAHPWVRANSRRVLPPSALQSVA
# Aurora kinase A = Aurora kinase A (Homo sapiens, UniProt O14965); format: functional;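 further: value from the Navigating the Kinome kinase panel profiling, panel entry STK6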
# Sequence of Aurora kinase A (O14965 whole entry): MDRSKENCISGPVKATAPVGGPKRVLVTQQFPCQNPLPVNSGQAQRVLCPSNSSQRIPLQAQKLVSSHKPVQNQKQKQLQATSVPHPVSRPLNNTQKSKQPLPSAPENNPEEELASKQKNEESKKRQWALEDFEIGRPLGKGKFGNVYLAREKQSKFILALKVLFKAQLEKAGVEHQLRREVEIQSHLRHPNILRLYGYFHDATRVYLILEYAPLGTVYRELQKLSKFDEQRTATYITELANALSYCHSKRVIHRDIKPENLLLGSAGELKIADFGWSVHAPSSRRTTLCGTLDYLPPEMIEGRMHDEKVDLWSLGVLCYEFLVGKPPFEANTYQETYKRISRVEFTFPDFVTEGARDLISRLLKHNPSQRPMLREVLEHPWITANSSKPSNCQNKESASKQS
# [26] = THP-1 cell cytotoxicity, cytotoxicity control, set 6 (AID 602433); format: functional; conditions: Mycobacterium tuberculosis
# [27] = biological target: Dual specificity protein kinase CLK2 (Homo sapiens, UniProt P49760); format: functional
# [28] = biological target: Serine/threonine-protein kinase 17A (Homo sapiens, UniProt Q9UEE5); format: functional
# Misshapen-like kinase 1 = Misshapen-like kinase 1 (Homo sapiens, UniProt Q8N4C8); format: functional;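 further: kinome panel screen with MINK as the panel member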
# [29] = biological target: Mitogen-activated protein kinase kinase kinase kinase 2 (Homo sapiens, UniProt Q12851); format: functional;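 further: measured as one member of a kinome-wide kinase panel, with MAP4K2 as the panel entry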
# [30] = biological target: Calcium/calmodulin-dependent protein kinase type II subunit delta (Homo sapiens, UniProt Q13557); format: functional
# Sequence of Calcium/calmodulin-dependent protein kinase type II subunit delta (Q13557 whole entry): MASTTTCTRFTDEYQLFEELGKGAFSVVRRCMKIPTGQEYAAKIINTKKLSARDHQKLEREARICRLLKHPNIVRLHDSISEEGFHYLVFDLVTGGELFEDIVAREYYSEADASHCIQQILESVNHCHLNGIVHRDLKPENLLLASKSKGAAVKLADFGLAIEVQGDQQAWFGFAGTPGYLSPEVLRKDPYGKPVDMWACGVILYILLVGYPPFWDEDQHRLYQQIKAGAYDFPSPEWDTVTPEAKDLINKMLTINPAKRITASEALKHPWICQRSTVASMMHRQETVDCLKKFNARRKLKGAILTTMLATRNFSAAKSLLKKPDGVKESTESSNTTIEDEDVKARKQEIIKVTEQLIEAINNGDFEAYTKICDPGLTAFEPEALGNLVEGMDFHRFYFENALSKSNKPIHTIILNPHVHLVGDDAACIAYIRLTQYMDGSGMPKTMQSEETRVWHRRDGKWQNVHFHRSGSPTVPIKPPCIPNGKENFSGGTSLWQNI
# [31] = biological target: Calcium/calmodulin-dependent protein kinase type II subunit beta (Homo sapiens, UniProt Q13554); format: functional
# Sequence of Calcium/calmodulin-dependent protein kinase type II subunit beta (Q13554 whole entry): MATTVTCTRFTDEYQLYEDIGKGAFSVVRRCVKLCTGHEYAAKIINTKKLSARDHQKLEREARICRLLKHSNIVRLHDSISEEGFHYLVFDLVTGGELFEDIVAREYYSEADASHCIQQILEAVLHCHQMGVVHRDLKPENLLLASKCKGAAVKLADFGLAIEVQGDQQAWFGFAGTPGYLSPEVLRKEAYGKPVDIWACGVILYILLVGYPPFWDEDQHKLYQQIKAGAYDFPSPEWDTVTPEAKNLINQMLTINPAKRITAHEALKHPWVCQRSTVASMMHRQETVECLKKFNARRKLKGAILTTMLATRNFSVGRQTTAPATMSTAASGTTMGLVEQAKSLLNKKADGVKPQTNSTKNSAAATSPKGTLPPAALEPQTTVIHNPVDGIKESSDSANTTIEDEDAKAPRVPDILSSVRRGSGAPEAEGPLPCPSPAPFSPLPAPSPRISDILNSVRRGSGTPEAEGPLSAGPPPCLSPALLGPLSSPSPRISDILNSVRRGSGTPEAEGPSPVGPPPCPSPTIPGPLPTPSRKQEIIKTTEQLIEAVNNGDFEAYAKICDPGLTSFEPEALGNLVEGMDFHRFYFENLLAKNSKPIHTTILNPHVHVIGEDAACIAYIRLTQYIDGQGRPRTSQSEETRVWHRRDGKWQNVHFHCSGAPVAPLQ
# [32] = biological target: Calcium/calmodulin-dependent protein kinase type II subunit gamma (Homo sapiens, UniProt Q13555); format: functional
# [33] = biological target: Receptor-type tyrosine-protein kinase FLT3 (Homo sapiens, UniProt P36888); format: functional;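 further: FLT3 was tested as one member of a kinome-wide kinase panel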
# [34] = biological target: Protein kinase C delta type (Homo sapiens, UniProt Q05655); format: functional
# Sequence of Protein kinase C delta type (Q05655 whole entry): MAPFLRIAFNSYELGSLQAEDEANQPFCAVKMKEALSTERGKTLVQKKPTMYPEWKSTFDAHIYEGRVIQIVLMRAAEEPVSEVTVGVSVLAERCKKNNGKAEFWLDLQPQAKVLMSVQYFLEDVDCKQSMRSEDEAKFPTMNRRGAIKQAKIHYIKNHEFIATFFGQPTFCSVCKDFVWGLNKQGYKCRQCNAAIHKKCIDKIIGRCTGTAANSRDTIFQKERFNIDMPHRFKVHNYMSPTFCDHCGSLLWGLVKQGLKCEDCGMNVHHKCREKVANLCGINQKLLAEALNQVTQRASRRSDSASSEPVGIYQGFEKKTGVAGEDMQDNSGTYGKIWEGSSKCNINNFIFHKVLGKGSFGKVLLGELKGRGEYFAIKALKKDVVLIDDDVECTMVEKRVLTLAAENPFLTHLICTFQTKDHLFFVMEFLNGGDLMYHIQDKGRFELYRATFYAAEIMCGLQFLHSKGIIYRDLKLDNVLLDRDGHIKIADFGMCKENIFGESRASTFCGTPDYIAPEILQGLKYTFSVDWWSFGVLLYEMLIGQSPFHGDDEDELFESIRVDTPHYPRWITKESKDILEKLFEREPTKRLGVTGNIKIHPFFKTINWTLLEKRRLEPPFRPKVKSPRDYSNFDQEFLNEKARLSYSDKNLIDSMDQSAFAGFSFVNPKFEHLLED
# T1 sequence (O43614 whole entry): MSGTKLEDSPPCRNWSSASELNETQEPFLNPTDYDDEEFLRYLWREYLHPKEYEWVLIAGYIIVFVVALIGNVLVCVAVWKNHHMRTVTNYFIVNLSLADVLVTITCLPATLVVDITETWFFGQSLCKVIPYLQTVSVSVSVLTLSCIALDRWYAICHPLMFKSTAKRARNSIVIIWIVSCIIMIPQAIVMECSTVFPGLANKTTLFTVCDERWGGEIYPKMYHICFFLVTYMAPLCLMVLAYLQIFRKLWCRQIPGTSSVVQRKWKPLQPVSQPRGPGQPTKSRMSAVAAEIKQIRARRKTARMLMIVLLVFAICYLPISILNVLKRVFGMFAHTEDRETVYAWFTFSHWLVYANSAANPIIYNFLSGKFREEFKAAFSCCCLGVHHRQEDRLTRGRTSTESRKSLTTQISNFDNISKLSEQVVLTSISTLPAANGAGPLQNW
smiles,measurement,setting,value
O=C(Nc1ccc2sc3ccccc3c(=O)c2c1)c1ccccc1Cl,IC50,Orexin receptor type 2 [1],> 88800 nM (inactive)
same,EC50,[2],300 nM (active)
same,IC50,CHO-K1,> 66200 nM (inactive)
same,EC50,[3],297 nM (active)
same,IC50,[4],> 49800 nM (inactive)
same,EC50,[5],454 nM (active)
same,IC50,[6],> 5530 nM (active)
same,EC50,H4,199 nM (active)
same,IC50,Orexin receptor type 2 [7],1540 nM (active)
same,EC50,[8],232 nM (active)
same,IC50,[9],3260 nM (active)
COc1ccc(CCNC(=O)COC(=O)C2CC2C)cc1OC (centres undefined),EC50,HEK293 [10],> 55900 nM (inactive)
same,EC50,Insulin-degrading enzyme [11],> 54700 nM (inactive)
same,EC50,Insulin-degrading enzyme [12],> 54700 nM (inactive)
same,IC50,HEK293 [13],> 89200 nM (inactive)
CC(C)(CO)CCCNc1cc(-c2c[nH]c3ncccc23)cc(Cl)n1,Ki,[14],158 nM (active)
same,Ki,[15],0.631 nM (active)
same,Ki,[16],79.4 nM (active)
same,Ki,[17],31.6 nM (active)
same,Ki,[18],31.6 nM (active)
same,Ki,[19],7.94 nM (active)
same,Ki,[20],398 nM (active)
same,Ki,[21],1580 nM (active)
O=C(c1cc(C2CC2)on1)N(C1CCCCC1)C1CCOCC1,EC50,[22],> 50000 nM (inactive)
same,EC50,[23],> 50000 nM (inactive)
O=C(Nc1cccc(-c2nn3ccccc3c2-c2ccnc(Nc3ccc4c(c3)CNCC4)n2)c1)c1c(F)cccc1F,Ki,[24],12.6 nM (active)
same,Ki,[25],20 nM (active)
same,Ki,Aurora kinase B,5.01 nM (active)
same,Ki,Aurora kinase A,200 nM (active)
O=C(c1ccc(CNc2c(N3CCOCC3)c(=O)c2=O)cc1)N1CCC(c2ccccc2)CC1,CC50,[26],> 100000 nM (active)
Cc1n[nH]c2c1C(c1ccccc1F)C(C#N)=C(N)O2 (centres undefined),Ki,[27],7940 nM (active)
same,Ki,[28],2510 nM (active)
same,Ki,Misshapen-like kinase 1,5010 nM (active)
same,Ki,[29],5010 nM (active)
CCNc1nc(C)c(C=CC(C)(C)c2ccc(C(F)(F)F)cc2)c(NCC)n1,Ki,[30],2000 nM (active)
same,Ki,[31],2000 nM (active)
same,Ki,[32],1580 nM (active)
same,Ki,[33],1260 nM (active)
same,Ki,[34],7940 nM (active)

# From ChEMBL document CHEMBL1201862, “PubChem BioAssay data set” (2004)
